Where a name gives a salt, the structure may show the parent alone. Read-outs that look alike come from different tables or passages of the source.
Legend:
[1] = system: interleukin-1β production; experiment: Inhibitory activity against interleukin-1β production (LPS-stimulated HL-60 cells, ELISA); format: cell-based; conditions: lipopolysaccharide 10 μg/mL, 3 days
Protocol: Inhibitory Activity Against Interleukin-1β Production
HL-60 cells were cultured for 4 days until confluence on RPMI 1640 medium with 10% fetal bovine serum (FBS) added thereto. The medium was centrifuged. The supernatant was discarded, and the cells were then suspended at 1×10^6 cells/mL on RPMI 1640 medium with 3% FBS, and lipopolysaccharide was added to give a final concentration of 10 μg/mL. The culture was inoculated at 1 mL/well to a 24-well plate. A sample compound was added at 1 μL/well, followed by culturing for 3 days. Three days later, the amount of interleukin-1β in each culture was determined by ELISA. Each IC50 value was determined by a comparison in yield with a control to which no test sample was added.

[2] = Water solubility test; format: physicochemical; conditions: for Solubility (%): purified water, from amount of water required for dissolution; for Dissolution in amount of added water: 100 mL purified water added
Protocol: Each sample compound was weighed in the amount shown in Table 3, to which purified water was added in 0.05 mL aliquots. The solubility (%) of the compound was determined based on the amount of water required for its dissolution.

[3] = Oral absorbability test on rats and/or mice; format: in vivo; conditions: orally administered to mice and/or rats, as in Experiment 3, FIGS. 2 to 6
Protocol: The compound of Example 83 and the comparative compound 3 were suspended at 2 mg/mL with a 0.5% MC solution in mortars, respectively, and were orally administered to male SD rats at 10 mg/5 mL/kg. Upon elapsed time of 0.25, 0.5, 1, 2, 4, 6 and 8 hours after the administration, blood samples were collected and then centrifuged to provide plasma samples. The plasma levels of the respective compounds were determined by HPLC. […] The compound of Example 83 is, therefore, useful as an orally dosable medicine.
In a similar manner as in Experiment 3, test compounds of Examples 23, 25, 143, 193, 245, 246, 247, 248 and 249 were orally administered to mice and/or rats to test their oral absorbability.

[4] = Homo sapiens, 72 h, Table 2, read-out: IL-1β production inhibiting activity IC50
[5] = Homo sapiens, 72 h, Table 1, read-out: IL-1β production inhibiting activity IC50
[6] = Table 1, read-out: IL-1β production inhibiting activity IC50

Row | melting point [°C] | Solubility (%) [2] [%] | IC50 [1, 5] [µM] | SMILES | also measured
1 | 80 to 85 |  |  | Cc1cc(-c2cc(CCCN)c(=O)n(Cc3ccccc3Cl)n2)ccc1F [Example 227, 4-(3-aminopropyl)-2-(2-chlorobenzyl)-6-(4-fluoro-3-methylphenyl)-2H-pyridazin-3-one] | IC50 [1, 4]: 5.2 µM
2 |  | 10 |  | COc1ccc(-c2cc(CCCN3CCNCC3)c(=O)n(CC3CC3)n2)cc1F.Cl.Cl [Example 214, 2-cyclopropylmethyl-6-(3-fluoro-4-methoxyphenyl)-4-[3-(1-piperazinyl)propyl]-2H-pyridazin-3-one dihydrochloride] | 
3 |  | 10 |  | COc1ccc(-c2cc(CN3CCN(C)CC3)c(=O)n(Cc3ccc(F)c(F)c3)n2)cc1F.Cl.Cl [Example 245, 2-(3,4-difluorobenzyl)-6-(3-fluoro-4-methoxyphenyl)-4-(4-methyl-1-piperazinyl)methyl-2H-pyridazin-3-one dihydrochloride] | Oral absorbability [3]: good absorbability
4 | 133.3 to 133.8 |  |  | Cc1cc(-c2cc(CN3CCN(C)CC3)c(=O)n(Cc3ccc(Cl)cc3)n2)ccc1F [Example 222, 2-(4-chlorobenzyl)-6-(4-fluoro-3-methylphenyl)-4-(4-methyl-1-piperazinyl)methyl-2H-pyridazin-3-one] | IC50 [1, 4]: 5.8 µM
5 | 142 to 143 |  | 0.64 | COc1ccc(-c2cc(CN3CCNCC3)c(=O)n(Cc3ccc(F)cc3)n2)cc1F [Example 192, 2-(4-fluorobenzyl)-6-(3-fluoro-4-methoxyphenyl)-4-(1-piperazinyl)methyl-2H-pyridazin-3-one] | 
6 |  | 0.08 |  | COc1ccc(-c2cc(CN)c(=O)n(CC3CCCC3)n2)cc1F.Cl [Example 188, 4-aminomethyl-2-cyclopentylmethyl-6-(3-fluoro-4-methoxyphenyl)-2H-pyridazin-3-one hydrochloride] | 
7 |  | <0.001 |  | CNC(=O)c1cc(-c2ccc(OC)cc2)nn(CC(C)C)c1=O [compound 2, reference compound] | Dissolution in amount of added water [2]: (insoluble)
8 |  | <0.001 |  | COc1ccc(-c2cc(C(=O)O)c(=O)n(C/C=C/c3ccc(Cl)cc3)n2)cc1 [compound 4, reference compound] | Dissolution in amount of added water [2]: (insoluble)
9 | 123.9 to 125.5 |  |  | COc1ccc(-c2cc(CN3CCN(C)CC3)c(=O)n(CC=Cc3ccc(Cl)cc3)n2)cc1F [Example 209, 2-(4-chlorocinnamyl)-6-(3-fluoro-4-methoxyphenyl)-4-(4-methyl-1-piperazinyl)methyl-2H-pyridazin-3-one] | IC50 [1, 4]: 2.8 µM
10 |  | 1 | 5.4 | COc1ccc(-c2cc(CN3CCN(Cc4ccccc4)CC3)c(=O)n(CC3CC3)n2)cc1F.Cl.Cl [Example 18, 4-(4-benzyl-1-piperazinyl)methyl-2-cyclopropylmethyl-6-(3-fluoro-4-methoxyphenyl)-2H-pyridazin-3-one dihydrochloride] | 
11 |  | 10 |  | COc1ccc(-c2cc(CCCN)c(=O)n(CC3CC3)n2)cc1F.Cl [Example 217, 4-(3-aminopropyl)-2-cyclopropylmethyl-6-(3-fluoro-4-methoxyphenyl)-2H-pyridazin-3-one hydrochloride] | 
12 |  |  |  | COc1ccc(-c2cc(CN3CCN(C)CC3)c(=O)n(CCCc3ccc(Cl)cc3)n2)cc1F [Example 242, 2-[3-(4-chlorophenyl)propyl]-6-(3-fluoro-4-methoxyphenyl)-4-(4-methyl-1-piperazinyl)methyl-2H-pyridazin-3-one] | IC50 [1, 4]: 7.7 µM
13 |  | >20 |  | CC(C)Cn1nc(-c2ccc(F)c(F)c2)cc(CN(CCO)CCO)c1=O.Cl [Example 108, 4-N,N-bis(2-hydroxyethyl)aminomethyl-6-(3,4-difluorophenyl)-2-isobutyl-2H-pyridazin-3-one hydrochloride] | IC50 [1, 6]: 3.44 µM
14 |  | 0.2 |  | COc1ccc(-c2cc(CN)c(=O)n(Cc3ccc(F)cc3)n2)cc1F.Cl [Example 195, 4-aminomethyl-2-(4-fluorobenzyl)-6-(3-fluoro-4-methoxyphenyl)-2H-pyridazin-3-one hydrochloride] | 
15 |  | <0.001 |  | CCOC(=O)Nc1cc(-c2ccc(OC)cc2)nn(C/C=C/c2ccc(Cl)cc2)c1=O [compound 1, reference compound] | Dissolution in amount of added water [2]: (insoluble)
16 |  | 4 | 6.21 | Cc1ccc(-c2cc(CN(C)C)c(=O)n(CC(C)C)n2)cc1.Cl [Example 45, 4-dimethylaminomethyl-2-isobutyl-6-(4-methylphenyl)-2H-pyridazin-3-one hydrochloride] | 
17 | 197.5 to 198.4 |  | 2.78 | C#CCNCc1cc(-c2ccc(SC)cc2)nn(CC(C)C)c1=O.Cl [Example 163, 2-isobutyl-6-[4-(methylthio)phenyl]-4-propargylaminomethyl-2H-pyridazin-3-one hydrochloride] | 
18 |  | 0.06 |  | COc1ccc(-c2cc(CN)c(=O)n(Cc3ccc(Cl)cc3)n2)cc1F.Cl [Example 206, 4-aminomethyl-2-(4-chlorobenzyl)-6-(3-fluoro-4-methoxyphenyl)-2H-pyridazin-3-one hydrochloride] | 
19 | 129.9 to 130.4 |  |  | COc1ccc(-c2cc(CN(C)C)c(=O)n(Cc3ccc(F)c(F)c3)n2)cc1F [Example 208, 2-(3,4-difluorobenzyl)-4-dimethylaminomethyl-6-(3-fluoro-4-methoxyphenyl)-2H-pyridazin-3-one] | IC50 [1, 4]: 6.1 µM
20 |  | >20 | 5.5 | Cc1cc(-c2cc(CN(C)C)c(=O)n(CC(C)C)n2)ccc1F.Cl [Example 89, 4-dimethylaminomethyl-6-(4-fluoro-3-methylphenyl)-2-isobutyl-2H-pyridazin-3-one hydrochloride] | 
21 |  |  |  | Cc1cc(-c2cc(CN3CCN(C)CC3)c(=O)n(Cc3c(Cl)cccc3Cl)n2)ccc1F [Example 231, 2-(2,6-dichlorobenzyl)-6-(4-fluoro-3-methylphenyl)-4-(4-methyl-1-piperazinyl)methyl-2H-pyridazin-3-one] | IC50 [1, 4]: 5.7 µM
22 |  | >20 | 1.01 | COc1ccc(-c2cc(CN3CCNCC3)c(=O)n(CC3CC3)n2)cc1F.Cl.Cl [Example 21, 2-cyclopropylmethyl-6-(3-fluoro-4-methoxyphenyl)-4-(1-piperazinyl)methyl-2H-pyridazin-3-one dihydrochloride] | 
23 | 246.5 to 248.5 |  | 3.45 | Cc1ccc(-c2cc(CN(C)C)c(=O)n(CC(C)C)n2)cc1F.Cl [Example 8, 4-dimethylaminomethyl-6-(3-fluoro-4-methylphenyl)-2-isobutyl-2H-pyridazin-3-one hydrochloride] | 
24 |  |  |  | Cc1cc(-c2cc(CN3CCN(C)CC3)c(=O)n(CCc3ccc(Cl)cc3)n2)ccc1F [Example 230, 2-[2-(4-chlorophenyl)ethyl]-6-(4-fluoro-3-methylphenyl)-4-(4-methyl-1-piperazinyl)methyl-2H-pyridazin-3-one] | IC50 [1, 4]: 4 µM
25 |  |  |  | Cc1ccc(-c2cc(CN(CCO)CCO)c(=O)n(CC(C)C)n2)cc1 [Example 49, 4-N,N-bis(2-hydroxyethyl)aminomethyl-6-(4-methylphenyl)-2-isobutyl-2H-pyridazin-3-one hydrochloride] | IC50 [1, 6]: 3.53 µM
26 | 135.4 to 136 |  |  | COc1ccc(-c2cc(CN3CCN(C)CC3)c(=O)n(Cc3ccc(F)c(F)c3)n2)cc1F [Example 207, 2-(3,4-difluorobenzyl)-6-(3-fluoro-4-methoxyphenyl)-4-(4-methyl-1-piperazinyl)methyl-2H-pyridazin-3-one] | IC50 [1, 4]: 2.7 µM
27 |  | >20 | 5.2 | CCN(CC)Cc1cc(-c2ccc(C)cc2)nn(CC(C)C)c1=O.Cl [Example 47, 4-diethylaminomethyl-2-isobutyl-6-(4-methylphenyl)-2H-pyridazin-3-one hydrochloride] | 
28 | 112 to 113 |  | 0.87 | COc1ccc(-c2cc(CN3CCN(C)CC3)c(=O)n(Cc3ccc(F)cc3)n2)cc1F [Example 189, 2-(4-fluorobenzyl)-6-(3-fluoro-4-methoxyphenyl)-4-(4-methyl-1-piperazinyl)methyl-2H-pyridazin-3-one] | 
29 | 216.8 to 218.4 |  | 2.78 | CSc1ccc(-c2cc(CN(C)C)c(=O)n(CC(C)C)n2)cc1.Cl [Example 161, 4-dimethylaminomethyl-2-isobutyl-6-[4-(methylthio)phenyl]-2H-pyridazin-3-one hydrochloride] | 
30 | 234.6 to 239.2 | >10 | 1.63 | CSc1ccc(-c2cc(CN3CCN(C)CC3)c(=O)n(CC3CC3)n2)cc1.Cl.Cl [Example 149, 2-cyclopropylmethyl-4-(4-methyl-1-piperazinyl)methyl-6-[4-(methylthio)phenyl]-2H-pyridazin-3-one dihydrochloride] | 

Source: patent publication US6861428B2, “Water-soluble phenylpyridazine compounds and compositions containing the same” (Kowa Co., Ltd., priority 2001, dated 2005)
